Consider four compounds from patent publication US6642227B2, “Inhibitors of c-Jun N-terminal kinases (JNK) and other protein kinases” (Vertex Pharmaceuticals Incorporated, priority 2001, dated 2003).

This experiment deals with T1, activated JNK3 (Homo sapiens, UniProt P53779).
T1 construct: One such construct encodes amino acid residues Ser40-Glu402 of JNK3α1 and is preceded by Met and Gly residues; Met-Gly dipeptide (initiator Met plus Gly added for the NcoI site) (N); made in house; host or cells: E. coli BL21 (DE3)
Kind of experiment: JNK inhibition assay (spectrophotometric coupled-enzyme assay). Type of experiment: biochemical. The settings on record: activated JNK3 10 nM, 10 μM ATP, 30° C.; read-out: JNK3 Activity (Ki class A-C). The source says: A BLAST search of the EST database using the published JNK3α1 cDNA as a query identified an EST clone (#632588) that contained the entire coding sequence for human JNK3α1. Polymerase chain reactions (PCR) using pfu polymerase (Strategene) were used to introduce restriction sites into the cDNA for cloning into the pET-15B expression vector at the NcoI and BamHI sites. The protein was expressed in E. coli. Due to the poor solubility of the expressed full-length protein (Met 1-Gln 422), an N-terminally truncated protein starting at Ser residue at position 40 (Ser 40) was produced. This truncation corresponds to Ser 2 of JNK1 and JNK2 proteins, and is preceded by a methionine (initiation) and a glycine residue. The glycine residue was added in order to introduce an NcoI site for cloning into the expression vector. In addition, systematic C-terminal truncations were performed by PCR to identify a construct that give rise to diffraction-quality crystals. One such construct encodes amino acid residues Ser40-Glu402 of JNK3α1 and is preceded by Met and Gly residues.
The construct was prepared by PCR using deoxyoligonucleotides: 5′ […] 3′ (forward primer with initiation codon underlined)(SEQ ID NO:1) and 5′ […] 3′ (reverse primer with stop codon underlined)(SEQ ID NO:2) as primers and was confirmed by DNA sequencing.
E.coli strain BL21 (DE3) (Novagen) was transformed with the JNK3 expression construct and grown at 30° C. in LB supplemented with 100 μg/ml carbenicillin in shaker flasks until the cells were in log phase (OD600˜0.8). Isopropylthio-β-D-[…] (IPTG) was added to a final concentration of 0.8 mM and the cells were harvested 2 hours later by centrifugation.
E. coli cell paste containing JNK3 was resuspended in 10 volumes/g lysis buffer (50 mM HEPES, pH 7.2, containing 10% glycerol (v/v), 100 mM NaCl, 2 mM DTT, 0.1 mM PMSF, 2 μg/ml Pepstatin, lug/ml each of E-64 and Leupeptin). Cells were lysed on ice using a microfluidizer and centrifuged at 100,000×g for 30 min at 4° C. The 100,000×g supernatant was diluted 1:5 with Buffer A (20 mM HEPES, pH 7.0, 10% glycerol (v/v), 2 mM DTT) and purified by SP-Sepharose (Pharmacia) cation-exchange chromatography (column dimensions: 2.6×20 cm) at 4° C. The resin was washed with 5 column volumes of Buffer A, followed by 5 column volumes of Buffer A containing 50 mM NaCl. Bound JNK3 was eluted with a 7.5 column volume linear gradient of 50-300 mM NaCl. JNK3 eluted between 150-200 mM NaCl.
Five mg of JNK3 was diluted to 0.5 mg/ml in 50 mM HEPES buffer, pH 7.5, containing 100 mM NaCl, 5 mM DTT, 20 mM MgCl2 and 1 mM ATP. GST-MKK7(DD) was added at a molar ratio of 1:2.5 GST-MKK7:JNK3. After incubation for 30 minutes at 25° C., the reaction mixture was concentrated 5-fold by ultrafiltration in a Centriprep-30 (Amicon, Beverly, Mass.), diluted to 10 ml and an additional 1 mM ATP added. This procedure was repeated three times to remove ADP and replenish ATP. The final addition of ATP was 5 mM and the mixture incubated overnight at 4° C.
The activated JNK3/GST-MKK7(DD) reaction mixture was exchanged into 50 mM HEPES buffer, pH 7.5, containing 5 mM DTT and 5% glycerol (w/v) by dialysis or ultrafiltration. The reaction mixture was adjusted to 1.1 M potassium phosphate, pH 7.5, and purified by hydrophobic interaction chromatography (at 25° C.) using a Rainin Hydropore column. […] Activated JNK3 (i.e. doubly phosphorylated JNK3) was stored at −70° C. at 0.25-1 mg/ml.
Compounds were assayed for the inhibition of JNK3 by a spectrophotometric coupled-enzyme assay. In this assay, a fixed concentration of activated JNK3 (10 nM) was incubated with various concentrations of a potential inhibitor dissolved in DMSO for 10 minutes at 30° C. in a buffer containing 0.1 M HEPES buffer, pH 7.5, containing 10 mM MgCl2, 2.5 mM phosphoenolpyruvate, 200 μM NADH, 150 μg/mL pyruvate kinase, 50 μg/mL lactate dehydrogenase, and 200 μM EGF receptor peptide. […]

Where only a bound is given, the exact number is not on record here.

T1 sequence (P53779 40-402): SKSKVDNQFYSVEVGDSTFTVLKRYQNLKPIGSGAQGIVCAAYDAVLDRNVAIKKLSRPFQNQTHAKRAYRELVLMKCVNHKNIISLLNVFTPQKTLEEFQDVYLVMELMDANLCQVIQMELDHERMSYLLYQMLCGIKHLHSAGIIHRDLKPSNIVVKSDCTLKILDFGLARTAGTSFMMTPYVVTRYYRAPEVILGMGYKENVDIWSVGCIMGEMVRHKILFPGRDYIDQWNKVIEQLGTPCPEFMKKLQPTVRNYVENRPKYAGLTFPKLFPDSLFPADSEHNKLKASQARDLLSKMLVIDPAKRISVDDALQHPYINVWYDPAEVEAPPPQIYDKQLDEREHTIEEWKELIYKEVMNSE

A word on the Ki: it is a measure of affinity in units of concentration, obtained from inhibition or displacement. Take `CSc1sc(-c2ccnc(Nc3ccccc3)n2)c(-c2ccc(Cl)cc2)c1C#N` [IIa-10, 2-Methylsulfanyl-5-(2-phenylamino-pyrimidin-4-yl)-4-(4-chloro-phenyl)-thiophene-3-carbonitrile]: the Ki was less than 100 nM. To `CCOc1sc(-c2ccnc(Nc3ccccc3)n2)c(-c2ccc(C)cc2)c1C#N` [IIa-15, 2-Ethoxy-5-(2-phenylamino-pyrimidin-4-yl)-4-p-tolyl-thiophene-3-carbonitrile] belongs less than 100 nM; to `CCOc1sc(-c2ccnc(Nc3ccccc3)n2)c(-c2ccc(Cl)cc2)c1C#N` [IIa-11, 2-Ethoxy-5-(2-phenylamino-pyrimidin-4-yl)-4-(4-chloro-phenyl)-thiophene-3-carbonitrile], less than 100 nM; to `CSc1sc(-c2ccnc(Nc3ccccc3)n2)c(-c2ccc(C)cc2)c1C#N` [IIa-14, 2-Methylsulfanyl-5-(2-phenylamino-pyrimidin-4-yl)-4-p-tolyl-thiophene-3-carbonitrile], less than 100 nM.
